Experimental data published in USRE46943E1, “Radioprotector compounds and methods” (PETER MACCALLUM CANCER INSTITUTE, priority 2010, dated 2018).

Key:
[1] = tested on: transformed human keratinocyte cell line (FEP 1811); assay: Clonogenic survival cell culture assay for cytotoxicity; type: cell-based; conditions: Homo sapiens, Keratinocyte, light or radiation study; un-irradiated keratinocytes, one hour drug exposure, colonies counted after eight days; read-out: C50 (concentration of radioprotector that results in 50% clonogenic survival)
Procedure, shortened: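 Mid-log monolayers exposed to test drug for 1 h, then pronase-dispersed and plated; colonies counted after 8 days. For […], irradiation at 0.6 Gy per minute began 30 min after drug addition, with total drug exposure held at 60 min before plating for clonogenic survival.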

[2] = tested on: transformed human keratinocyte cell line (FEP 1811); assay: Clonogenic survival cell culture assay for radioprotective activity (12 Gy 137Cs gamma irradiation); type: cell-based; conditions: 12 Gy; for DMF10 (dose modification factor at a concentration of 10 microM of radioprotector): 10 microM radioprotector; for DMFm (dose modification factor at maximum protection): DMF=Dp/Dc at survival level Sm; for PF (protection factor = Sm/So): survival at maximum protection vs irradiation only
Procedure, shortened: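 Survival after irradiation gave protection factor PF = Sm/So (maximum-protection survival over irradiation-only survival). DMF = Dp/Dc is the ratio of doses giving survival Sm with and without radioprotector. DMF10 uses survival at 10 microM radioprotector in place of Sm.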

| SMILES | IC50 [1] | DMF10 (dose modification factor at a concentration of 10 microM of radioprotector) [2] | DMFm (dose modification factor at maximum protection) [2] | PF (protection factor = Sm/So) [2] | melting point |
| --- | --- | --- | --- | --- | --- |
| OC1CCN(c2ccc3nc(-c4ccc5nc(-c6ccccn6)[nH]c5c4)[nH]c3c2)CC1 [Example 22, 2-(5′-(5″-(4′″-Hydroxypiperidin-1′″-yl)benzimidazol-2″-yl)benzimidazol-2′-yl)pyridine] | 266 µM | 1.47 | 2.20 | 21.3 | 226 to 229 °C |
| c1ccc(-c2nc3ccc(-c4nc5ccc(N6CCCCC6)cc5[nH]4)cc3[nH]2)nc1 [Example 24, 2-(5′-(5″-(Piperidin-1′″-yl)benzimidazol-2″-yl)benzimidazol-2′-yl)pyridine] | 24 µM | 1.35 | 1.42 | 7.5 | 196 to 203 °C |
| CN1CCCN(c2ccc3nc(-c4ccc5nc(-c6ccccn6)[nH]c5c4)[nH]c3c2)CC1 [Example 25, 2-(5′-(5″-(4′″-Methyl-1′″,4′″-diazepan-1′″-yl)benzimidazol-2″-yl)benzimidazol-2′-yl)pyridine] | 123 µM | 1.77 | 2.14 | 16.7 | 185 °C (dec.) |
| OC1CCCN(c2ccc3nc(-c4ccc5nc(-c6ccccn6)[nH]c5c4)[nH]c3c2)C1 (stereo not shown) [Example 26, 2-(5′-(5″-(3′″-Hydroxypiperidin-1′″-yl)benzimidazol-2″-yl)benzimidazol-2′-yl)pyridine] | 77.9 µM | 1.33 | 1.90 | 14.7 | 278 to 282 °C |
| CN(C)c1ccc2nc(-c3ccc4nc(-c5ccccn5)[nH]c4c3)[nH]c2c1 [Example 28, 2-(5′-(5″-(Dimethylamino)benzimidazol-2″-yl)benzimidazol-2′-yl)pyridine] | 60.8 µM | 1.30 | 1.57 | 13.5 | 180 °C (dec.) |
| CN(C)C1CCN(c2ccc3nc(-c4ccc5nc(-c6ccccn6)[nH]c5c4)[nH]c3c2)CC1 [Example 29, 2-(5′-(5″-(4′″-(Dimethylamino)piperidin-1′″-yl)benzimidazol-2″-yl)benzimidazol-2′-yl)pyridine] | 46.9 µM | 1.54 | 1.76 | 18.2 | 198 to 205 °C |
| COc1cc(-c2nc3cc(N4CCN(C)CC4)ccc3[nH]2)cc2nc(-c3ccccn3)[nH]c12 [Example 30, 2-(4′-Methoxy-6′-(5″-(4′″-methylpiperazin-1′″-yl)benzimidazol-2″-yl)benzimidazol-2′-yl)pyridine] | 158 µM | 1.78 | 1.97 | 13.3 | 200 °C (dec.) |
| CN1CCN(c2ccc3nc(-c4ccc5cc(-c6ccccn6)[nH]c5c4)[nH]c3c2)CC1 [Example 31, 2-(6′-(5″-(4′″-Methylpiperazin-1′″-yl)benzimidazol-2″-yl)indol-2′-yl)pyridine] | 19.8 µM | 2.09 | 2.20 | 22.8 | 245 to 247 °C |
| COc1cc2nc(-c3ccccn3)[nH]c2cc1-c1nc2ccc(N3CCN(C)CC3)cc2[nH]1 [Example 32, 2-(5′-methoxy-6′-(5″-(4′″-methylpiperazin-1′″-yl)benzimidazol-2″-yl)benzimidazol-2′-yl)pyridine] | 112 µM | 1.32 | 1.56 | 23.6 | 190 to 195 °C |
| COCCN(C)c1ccc2[nH]c(-c3ccc4[nH]c(-c5ccccn5)nc4c3)nc2c1 [Example 38, 2-(5′-(5″-((2′″-Methoxyethyl)(methyl)amino)benzimidazol-2″-yl)benzimidazol-2′-yl)pyridine] | 41.2 µM | 1.32 | 1.55 | 8.8 | 150 to 155 °C |
| COCCOCCNc1ccc2nc(-c3ccc4nc(-c5ccccn5)[nH]c4c3)[nH]c2c1 [Example 39, 2-(5′-(5″-(2′″-(2″″-methoxyethoxy)ethylamino)benzimidazol-2″-yl)benzimidazol-2′-yl)pyridine] | 173 µM | 1.50 | 2.70 | 171.5 | 183 to 186 °C |
| OCCN1CCN(c2ccc3nc(-c4ccc5nc(-c6ccccn6)[nH]c5c4)[nH]c3c2)CC1 [Example 41, 2-(5′-(5″-(4′″-(2″″-hydroxyethyl)piperazin-1′″-yl)benzimidazol-2″-yl)benzimidazol-2′-yl)pyridine] | 90.6 µM | 1.44 | 1.95 | 19.6 | 218 to 221 °C |
| c1ccc(-c2nc3ccc(-c4nc5ccc(NN6CCOCC6)cc5[nH]4)cc3[nH]2)nc1 [Example 42, 2-(5′-(5″-(morpholinoamino)benzimidazol-2″-yl)benzimidazol-2′-yl)pyridine] | 206 µM | 1.38 | 1.86 | 17.8 | 198 to 205 °C |
| CN1CCN(c2ccc3nc(-c4ccc5nc(-c6cc(C(F)(F)F)ccn6)[nH]c5c4)[nH]c3c2)CC1 [Example 48, 2-(5′-(5″-(4′″-methylpiperazin-1′″-yl)benzimidazol-2″-yl)benzimidazol-2′-yl)-4-(trifluoromethyl)pyridine] | 23.3 µM | 2.58 | 2.75 | 63.8 | 203 to 208 °C |
